Legend:
[1] = system: hepatocytes
Source text: (§1) Data is expressed as a percentage of the number of viable cells (as determined by LDH activity) in the non-hydrolysed gelatin sandwich at each time point. Native Gel/cell slurry (-{acute over (◯)}-) wherein hepatocytes suspended in a gel of non-hydrolysed gelatin; Pre-adhered hepatocytes with Native gel blanket (-▪-) wherein hepatocytes allowed to adhere to the substratum before being blanketed by gel of non-hydrolysed gelatin; hydrolysed gelatin slurry (-x-) wherein hepatocytes suspended in a gel of non-hydrolysed gelatin hydrolysed at 95° C.; 75 bloom slurry (--) wherein hepatocytes suspended in a gel composed of 75 bloom gelatin (commercially available from Sigma); Pre-attached hepatocytes with Hydrolysed gel blanket (-◯-) wherein hepatocytes allowed to adhere to the substratum before being blanketed by a gel of hydrolysed gelatin.

[2] = in vitro; conditions: rat
Source text: as §1

OCC(O)CO [glycerol]
cytotoxicity to hepatocytes during preservation [1]: cytotoxic | viability at 7 days, 0.5 M [2]: 10%

From patent publication US20090042289A1, “Preservation of Cells” (University of Wales, Cardiff, priority 2000, published 2009)
